The target of this data set is Multidrug resistance-associated protein 1 (Homo sapiens, UniProt P33527). The data set can be described thus: TP_TRANSPORTER: efflux in GLC4/sb30 cells. The class given is functional, cell-based.
Multidrug resistance-associated protein 1, sequence (P33527 whole entry): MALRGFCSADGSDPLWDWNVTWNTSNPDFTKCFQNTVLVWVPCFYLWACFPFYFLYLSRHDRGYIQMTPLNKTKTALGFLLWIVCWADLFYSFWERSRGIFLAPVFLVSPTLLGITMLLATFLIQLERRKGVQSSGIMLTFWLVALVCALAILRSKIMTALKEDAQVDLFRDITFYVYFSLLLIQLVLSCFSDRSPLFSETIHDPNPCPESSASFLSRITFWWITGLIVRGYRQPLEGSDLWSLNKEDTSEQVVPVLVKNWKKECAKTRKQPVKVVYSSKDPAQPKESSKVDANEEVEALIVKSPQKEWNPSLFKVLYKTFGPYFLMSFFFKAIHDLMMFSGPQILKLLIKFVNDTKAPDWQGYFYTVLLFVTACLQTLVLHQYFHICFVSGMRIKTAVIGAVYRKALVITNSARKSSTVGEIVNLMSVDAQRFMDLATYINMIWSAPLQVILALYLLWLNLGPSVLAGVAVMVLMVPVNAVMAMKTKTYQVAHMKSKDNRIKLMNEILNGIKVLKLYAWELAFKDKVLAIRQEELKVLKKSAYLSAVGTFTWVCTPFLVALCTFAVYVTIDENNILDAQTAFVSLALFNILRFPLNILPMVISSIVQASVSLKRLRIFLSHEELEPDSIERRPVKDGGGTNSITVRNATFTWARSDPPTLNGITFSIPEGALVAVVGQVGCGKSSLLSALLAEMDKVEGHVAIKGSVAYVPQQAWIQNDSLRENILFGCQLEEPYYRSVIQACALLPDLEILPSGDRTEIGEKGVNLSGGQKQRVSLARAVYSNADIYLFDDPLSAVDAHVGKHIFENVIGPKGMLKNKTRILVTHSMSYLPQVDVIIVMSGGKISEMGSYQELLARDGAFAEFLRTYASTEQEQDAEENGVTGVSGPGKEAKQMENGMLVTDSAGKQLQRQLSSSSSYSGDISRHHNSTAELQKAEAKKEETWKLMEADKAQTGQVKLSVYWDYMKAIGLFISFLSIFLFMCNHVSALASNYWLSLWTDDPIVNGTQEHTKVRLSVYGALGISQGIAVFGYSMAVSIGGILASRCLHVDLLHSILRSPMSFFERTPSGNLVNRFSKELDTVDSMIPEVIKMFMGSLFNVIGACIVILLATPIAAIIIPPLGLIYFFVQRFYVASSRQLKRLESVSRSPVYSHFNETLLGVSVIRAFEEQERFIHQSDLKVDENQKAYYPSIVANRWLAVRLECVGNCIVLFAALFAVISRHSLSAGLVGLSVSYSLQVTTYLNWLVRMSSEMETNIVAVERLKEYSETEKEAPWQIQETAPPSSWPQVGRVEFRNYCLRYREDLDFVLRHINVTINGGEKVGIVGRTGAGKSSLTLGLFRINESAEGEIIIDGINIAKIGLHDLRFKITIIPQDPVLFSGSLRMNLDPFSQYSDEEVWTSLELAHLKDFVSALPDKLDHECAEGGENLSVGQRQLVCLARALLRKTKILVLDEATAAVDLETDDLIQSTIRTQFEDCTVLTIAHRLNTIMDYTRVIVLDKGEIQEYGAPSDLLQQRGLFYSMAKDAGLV

As for `O=C(O)c1ccc(C(=O)O)c(-c2c3cc(Cl)c(=O)cc-3oc3cc(O)c(Cl)cc23)c1.O=C(O)c1cccc(C(=O)O)c1-c1c2cc(Cl)c(=O)cc-2oc2cc(O)c(Cl)cc12`, the Activity result was “substrate [+]”.

These data come from ChEMBL document CHEMBL2074005, “Use of the anionic dye carboxy-2',7'-dichlorofluorescein for sensitive flow cytometric detection of multidrug resistance-associated protein activity” (Int J Oncol, 1999).
